Measurements as given in US9493401B2, “Glutamate derivatives for topical use as immunomodulatory active ingredient” (PIERRE FABRE DERMO-COSMETIQUE, priority 2012, dated 2016).
Where two headings read alike, the source gives them in different places.

Key:
human CD4+ lymphocytes = test: Secretion of cytokines by human CD4+ lymphocytes stimulated with SEB (immuno-regulatory activity); format: cell-based; conditions: Lymphocyte, SEB 300 ng/ml, 24 h
HaCaT keratinocytes = test: Secretion of IL8 by HaCaT keratinocytes stimulated with TNFα (anti-inflammatory activity); format: cell-based, human; conditions: TNFα 10 ng/ml, 24 h; FIG. 4; in words
Experimental: The dosage of interleukin 8 is carried out from a sample taken from the supernatant according to the following method: • IL8 is evaluated by ELISA, Duoset IL8 (Ref. DY208E, R&D Systems).

NHEK keratinocytes = test: Gene expression of inflammatory markers of atopic dermatitis in stimulated NHEK keratinocytes (PCR-Array); format: cell-based, human; conditions: 24 h, vs stimulated control
Experimental: The primary keratinocytes (NHEK, normal human epidermal keratinocytes) distributed in 24-well plates are preincubated for 1 hour with the active ingredients and then stimulated for 24 hours with a cocktail of 4 agonists giving the possibility of creating in vitro the physio-pathological environment of atopic dermatitis: 100 ng/ml IL4+100 ng/ml IL13+1 μg/ml Poly I:C+5 μg/ml Pam3CSK4: this model gives the possibility of inducing the inflammation mediated by the overexpressed Th2 cytokines in DA (IL4, IL13) and by the bacterial components (mimicked by Pam3CSK4, TLR-2 ligand) and viral components (mimicked by Poly I:C, TLR-3 ligand) of DA. Analysis of the gene expression of the markers of DA is conducted in a PCR-Array with 48 genes and repeated on 3 different donors of NHEK.
For the whole of the markers, the RQ (Relative Quantity) of less than 0.5, at 5 h or 24 h, indicates significant inhibition: • inhibition of the TSLP marker involved in the lymphocyte Th2 polarization and specific of AD; • inhibition of the inflammatory cytokines IL1A, IL8, CSF2, IFNB1, VEGF; • inhibition of the chemokines CCL, CXCL, involved in the recruitment, cutaneous infiltration, and activation of the inflammatory cells (leucocytes, lymphocytes, Th1 and Th2 lymphocytes, monocytes).

[1] = read-out: inhibition of the production of IL-2
[2] = read-out: inhibition of the production of IL-4
[3] = read-out: inhibition of the production of IL-17

CCCCCCCCCOC(=O)CC[C@H](N)C(=O)O [Example 3, 5-(n-nonyl)-L-glutamate or 2-amino-5-(nonyloxy)-5-oxopentanoic acid]
inhibition at 300 µM (human CD4+ lymphocytes; [1]): 63%
inhibition at 300 µM (human CD4+ lymphocytes; [2]): 70%
inhibition at 300 µM (human CD4+ lymphocytes; [3]): 54%
anti-inflammatory activity towards the production of IL-8 (HaCaT keratinocytes): anti-inflammatory activity

CCCCCCCCCCCCOC(=O)CC[C@H](N)C(=O)O [Example 4, 5-(n-dodecyl)-L-glutamate or 2-amino-5-(dodecyloxy)-5-oxopentanoic acid]
melting point: 189.9 °C

CCCCCCCCCCCCCCOC(=O)CC[C@H](N)C(=O)O [Example 5, 5-(n-tetradecyl)-L-glutamate or 2-amino-5-oxo-5(tetradecyl)pentanoic acid]
melting point: 184.8 °C

CCCCCCCCCCCCCCCCOC(=O)CC[C@H](N)C(=O)O [Example 6, 5-(n-hexadecyl)-L-glutamate or 2-amino-5-(hexadecyloxy)-5-oxopentanoic acid]
melting point: 179.3 °C

CCCCCCCCCCCCCCCCCCOC(=O)CC[C@H](N)C(=O)O [Example 7, 5-(n-octadecyl)-L-glutamate or 2-amino-5-(octadecyloxy)-5-oxopentanoic acid]
melting point: 180.5 °C

CC(C)CCCC(C)CCOC(=O)CC[C@H](N)C(=O)O (stereo partly drawn) [Example 8, 5-(3,7-dimethyloctyl)-L-glutamate or 2-amino-5(3,7-dimethyloctyloxy)-5-oxo-pentanoic acid]
inhibition at 300 µM (human CD4+ lymphocytes; [1]): 29%
melting point: 150.8 °C

CCCCC(CC)COC(=O)CC[C@H](N)C(=O)O (stereo partly drawn) [Example 12, 5-(2-ethylhexyl)-L-glutamate or 2-amino-5(2-ethylhexyloxy)-5-oxopentanoic acid]
inhibition at 300 µM (human CD4+ lymphocytes; read-out: inhibition of the production of IFNγ): 77%
inhibition at 300 µM (human CD4+ lymphocytes; read-out: inhibition of the production of IL1β): 80%
inhibition at 300 µM (human CD4+ lymphocytes; read-out: inhibition of the production of IL5): 77%
inhibition at 300 µM (human CD4+ lymphocytes; read-out: inhibition of the production of IL6): 44%
inhibition at 300 µM (human CD4+ lymphocytes; read-out: inhibition of the production of IL10): 87%
inhibition at 300 µM (human CD4+ lymphocytes; read-out: inhibition of the production of IL13): 84%
inhibition at 300 µM (human CD4+ lymphocytes; [1]): 43%
inhibition at 300 µM (human CD4+ lymphocytes; [2]): 69%
inhibition at 300 µM (human CD4+ lymphocytes; [3]): 86%
inhibition at 300 µM (human CD4+ lymphocytes; read-out: inhibition of the production of TNFα): 18%
CCL2 (MCP-1) gene expression (NHEK keratinocytes; 100 μM): 0.48 RQ
CCL3 (MIP-1α) gene expression (NHEK keratinocytes; 100 μM): 0.51 RQ
CCL4 (MIP-1β) gene expression (NHEK keratinocytes; 100 μM): 0.14 RQ
CCL5 (RANTES) gene expression (NHEK keratinocytes; 100 μM): 0.42 RQ
CCL20 (MIP-3α) gene expression (NHEK keratinocytes; 100 μM): 0.13 RQ
CSF2 (GMCSF) gene expression (NHEK keratinocytes; 100 μM): 1.55 RQ
CXCL1 (GRO-α) gene expression (NHEK keratinocytes; 100 μM): 0.33 RQ
CXCL2 (MIP-2α) gene expression (NHEK keratinocytes; 100 μM): 0.06 RQ
CXCL9 (Gamma-interferon-induced monokine) gene expression (NHEK keratinocytes; 100 μM): 0.20 RQ
CXCL10 (IP-10) gene expression (NHEK keratinocytes; 100 μM): 0.18 RQ
CXCL11 (I-TAC) gene expression (NHEK keratinocytes; 100 μM): 0.14 RQ
IFNB1 (Interferon beta 1) gene expression (NHEK keratinocytes; 100 μM): 0.19 RQ
IL1A (Interleukin 1, alpha) gene expression (NHEK keratinocytes; 100 μM): 0.53 RQ
IL8 (Interleukin 8) gene expression (NHEK keratinocytes; 100 μM): 0.29 RQ
TSLP (Thymic stromal lymphopoietin) gene expression (NHEK keratinocytes; 100 μM): 0.20 RQ
VEGFC (Vascular endothelial growth factor C) gene expression (NHEK keratinocytes; 100 μM): 0.20 RQ
CCL3 (MIP-1α) gene expression (NHEK keratinocytes; 300 μM): 0.06 RQ
CCL4 (MIP-1β) gene expression (NHEK keratinocytes; 300 μM): 0.02 RQ
CCL5 (RANTES) gene expression (NHEK keratinocytes; 300 μM): 0.20 RQ
CCL20 (MIP-3α) gene expression (NHEK keratinocytes; 300 μM): 0.13 RQ
CSF2 (GMCSF) gene expression (NHEK keratinocytes; 300 μM): 0.33 RQ
CXCL1 (GRO-α) gene expression (NHEK keratinocytes; 300 μM): 0.36 RQ
CXCL2 (MIP-2α) gene expression (NHEK keratinocytes; 300 μM): 0.32 RQ
CXCL9 (Gamma-interferon-induced monokine) gene expression (NHEK keratinocytes; 300 μM): 0.29 RQ
CXCL10 (IP-10) gene expression (NHEK keratinocytes; 300 μM): 0.06 RQ
CXCL11 (I-TAC) gene expression (NHEK keratinocytes; 300 μM): 0.15 RQ
IFNB1 (Interferon beta 1) gene expression (NHEK keratinocytes; 300 μM): 0.26 RQ
IL1A (Interleukin 1, alpha) gene expression (NHEK keratinocytes; 300 μM): 0.53 RQ
IL8 (Interleukin 8) gene expression (NHEK keratinocytes; 300 μM): 0.18 RQ
TSLP (Thymic stromal lymphopoietin) gene expression (NHEK keratinocytes; 300 μM): 0.54 RQ
VEGFC (Vascular endothelial growth factor C) gene expression (NHEK keratinocytes; 300 μM): 0.50 RQ
melting point: 157.9 °C

N[C@@H](CCC(=O)O)C(=O)O [glutamic acid, reference compound]
anti-inflammatory activity towards the production of IL-8 (HaCaT keratinocytes): not again found
